Test results as given in patent US5707615A, “Method of treating HIV infections with anti-viral formulations” (Merrell Pharmaceuticals Inc., priority 1997, dated 1998).

Columns and labels:
HIV (Strain GB8) = assay: JM cells infected with HIV strain GB8: syncytia and p24 (Example VII); type: cell-based; conditions: for p24 3 days p.i.: supernatant screened at 1/100 dilution
Procedure: JM cells were infected with HIV (Strain GB8) to give approximately 200 syncytia/1×10^5 cells after 3 days; virus infection was for 1 hour at room temperature.

HIV (Strain RF) = assay: Anti-HIV activity in C8166 cells infected with HIV strain RF: syncytia and p24 (Example VI); type: cell-based; conditions: for p24 % of VIRUS CONTROL: 2880 min
Procedure: Protocol: C8166 cells were infected with HIV (Strain RF) for 1 hour at room temperature to give a multiplicity of infection of approximately 0.01 infectious units per cell.

HIV strain RF = assay: Ability to prevent virus-induced cell death using MT4 cells and strain RF (Example III); type: cell-based; conditions: MT4 cells, 7 days, MTT, 10080 min
Procedure: (§1) Various oligomers were dissolved in RPMI and were then assayed for anti-HIV activity by making doubling dilutions of the solutions across a 96 well microtitre plate. To each well were then added 5×10^4 cells and 100 TCID50 of virus and the plates incubated at 37° C. for 7 days. MTT was added to each well and the plates incubated for a further 2 hours. The blue formazan crystals were dissolved using acidic isopropanol, and the absorbance measured at 540 nm.

GB8 virus in JM cells = assay: Virus infection of JM cells with GB8 in the presence of test compounds: syncytia and P24 (Example II); conditions: for SYNCYTIA % / P24 %: % of control; for SYNCYTIA %: 2880 min; for P24 %: 5760 min
Procedure: Virus infection of JM cells was carried out in the presence of different concentrations of test compounds. JM cells (1×10^5) and 50-100 syncytial forming units of virus (GB8) were added to duplicate wells of a tissue culture plate containing 1 mL volumes of growth medium with or without drug. The plate was incubated for 2 days at 37° C. and then scored for the presence of syncytia. At the same time the cells were washed and the growth medium replaced. After a further two days incubation, the cell free supernatant fluids were harvested and assayed for levels of P24 viral core antigen using the Coulter™ HIV Antigen assay.

MT4 cells = assay: Toxicity to MT4 cells (TD50, Table IV, MTT); type: cell-based; conditions: MT4 cells, 7 days, MTT
Procedure: as §1

**Q.** What does the source list for “poly[oxy(2,5-disulfo-1,4-phenylene)oxycarbonyl-1,4-phenylenecarbonyl]- [Example 7]”?
**A.** MEAN SYNCYTIA 3 days p.i. (HIV (Strain GB8); 25 μg/ml): 43; p24 3 days p.i. (HIV (Strain GB8); 25 μg/ml): neg; MEAN SYNCYTIA 3 days p.i. (HIV (Strain GB8); 50 μg/ml): 24; p24 3 days p.i. (HIV (Strain GB8); 50 μg/ml): neg; MEAN SYNCYTIA 3 days p.i. (HIV (Strain GB8); 100 μg/ml): 7; p24 3 days p.i. (HIV (Strain GB8); 100 μg/ml): neg; MEAN SYNCYTIA 3 days p.i. (HIV (Strain GB8); 200 μg/ml): 0; p24 3 days p.i. (HIV (Strain GB8); 200 μg/ml): neg; p24 Day 2 (HIV (Strain RF); 12 μg/ml): 3140 pg/mL; p24 % of VIRUS CONTROL (HIV (Strain RF); 12 μg/ml): 98%; p24 Day 2 (HIV (Strain RF); 25 μg/ml): 1450 pg/mL; p24 % of VIRUS CONTROL (HIV (Strain RF); 25 μg/ml): 45%; p24 Day 2 (HIV (Strain RF); 50 μg/ml): 870 pg/mL; p24 % of VIRUS CONTROL (HIV (Strain RF); 50 μg/ml): 27%; p24 Day 2 (HIV (Strain RF); 100 μg/ml): neg; p24 % of VIRUS CONTROL (HIV (Strain RF); 100 μg/ml): 0%

**Q.** For “poly[oxy(2,5-disulfo-1,4-phenylene)oxycarbonyl], alpha-[(4-methylphenoxy)carbonyl]-omega-(4-methylphenoxy)- [Example 4]”, which “MEAN SYNCYTIA 3 days p.i.” value (HIV (Strain GB8); 25 μg/ml) is on record?
**A.** 95

**Q.** And the “p24 3 days p.i.” value (HIV (Strain GB8); 25 μg/ml)?
**A.** 6500 pg/mL

**Q.** What about the “MEAN SYNCYTIA 3 days p.i.” value (HIV (Strain GB8); 50 μg/ml) of the same substance?
**A.** 64

**Q.** What about the “p24 3 days p.i.” value (HIV (Strain GB8); 50 μg/ml) of the same substance?
**A.** neg

**Q.** And the “MEAN SYNCYTIA 3 days p.i.” value (HIV (Strain GB8); 100 μg/ml)?
**A.** Toxic

**Q.** And the “MEAN SYNCYTIA 3 days p.i.” value (HIV (Strain GB8); 200 μg/ml)?
**A.** Toxic

**Q.** What about the “p24 Day 2” value (HIV (Strain RF); 12 μg/ml) of the same substance?
**A.** 3050 pg/mL

**Q.** What about the “p24 % of VIRUS CONTROL” value (HIV (Strain RF); 12 μg/ml) of the same substance?
**A.** 95%

**Q.** And the “p24 Day 2” value (HIV (Strain RF); 25 μg/ml)?
**A.** 4820 pg/mL

**Q.** What about the “p24 % of VIRUS CONTROL” value (HIV (Strain RF); 25 μg/ml) of the same substance?
**A.** 100%

**Q.** What about the “p24 Day 2” value (HIV (Strain RF); 50 μg/ml) of the same substance?
**A.** 2820 pg/mL

**Q.** What about the “p24 % of VIRUS CONTROL” value (HIV (Strain RF); 50 μg/ml) of the same substance?
**A.** 88%

**Q.** What about the “p24 Day 2” value (HIV (Strain RF); 100 μg/ml) of the same substance?
**A.** 1930 pg/mL

**Q.** What about the “p24 % of VIRUS CONTROL” value (HIV (Strain RF); 100 μg/ml) of the same substance?
**A.** 60%

**Q.** Which results are given for “poly{imino[2,2'-disulfo(1,1'-biphenyl)-4,4'-diyl]iminocarbonyl-1,4-phenylenecarbonyl}, alpha-{[(4-methylphenyl)amino]carbonyl}-omega-[(4-methylphenyl)amino]- [Example 8A]”?
**A.** ED50 (HIV strain RF): 1.5 mg/L; P24 (GB8 virus in JM cells; Table II, 1 μg/mL): 4.3 × 10^4 units/mL; SYNCYTIA (2 DAYS) MEAN (GB8 virus in JM cells; Table II, 1 μg/mL): 3; SYNCYTIA % (GB8 virus in JM cells; Table II, 1 μg/mL): 7%; P24 % (GB8 virus in JM cells; Table II, 1 μg/mL): 12%; P24 (GB8 virus in JM cells; Table II, 3 μg/mL): 4.4 × 10^4 units/mL; SYNCYTIA (2 DAYS) MEAN (GB8 virus in JM cells; Table II, 3 μg/mL): 0; SYNCYTIA % (GB8 virus in JM cells; Table II, 3 μg/mL): 0%; P24 % (GB8 virus in JM cells; Table II, 3 μg/mL): 12%; SYNCYTIA (2 DAYS) MEAN (GB8 virus in JM cells; Table II, 10 μg/mL): 0; SYNCYTIA % (GB8 virus in JM cells; Table II, 10 μg/mL): 0%; SYNCYTIA (2 DAYS) MEAN (GB8 virus in JM cells; Table II, 30 μg/mL): 0; SYNCYTIA % (GB8 virus in JM cells; Table II, 30 μg/mL): 0%; SYNCYTIA (2 DAYS) MEAN (GB8 virus in JM cells; Table II, 100 μg/mL): 0; SYNCYTIA % (GB8 virus in JM cells; Table II, 100 μg/mL): 0%; P24 (GB8 virus in JM cells; Table III, 5 μg/mL): 268599 pg/mL; SYNCYTIA MEAN (GB8 virus in JM cells; Table III, 5 μg/mL): 35; SYNCYTIA % (GB8 virus in JM cells; Table III, 5 μg/mL): 51%; P24 % (GB8 virus in JM cells; Table III, 5 μg/mL): 81%; P24 (GB8 virus in JM cells; Table III, 50 μg/mL): 11600 pg/mL; SYNCYTIA MEAN (GB8 virus in JM cells; Table III, 50 μg/mL): 0; P24 % (GB8 virus in JM cells; Table III, 50 μg/mL): 3.5%; SYNCYTIA MEAN (GB8 virus in JM cells; Table III, 500 μg/mL): 0; TD50 (MT4 cells): > 100 µg/mL

**Q.** How did the ED50 (HIV strain RF) turn out when “poly{imino[2,2'-disulfo(1,1'-biphenyl)-4,4'-diyl]iminocarbonyl-1,4-phenylenecarbonyl}, alpha-{[(4-methylphenyl)amino]carbonyl}-omega-[(4-methylphenyl)amino]- [Example 8B]” was run?
**A.** 2.1 mg/L

**Q.** And the TD50 (MT4 cells)?
**A.** > 100 µg/mL

**Q.** For “poly{imino[2,2'-disulfo(1,1'-biphenyl)-4,4'-diyl]iminocarbonyl-1,4-phenylenecarbonyl}, alpha-{[(4-methylphenyl)amino]carbonyl}-omega-[(4-methylphenyl)amino]- [Example 8C]”, which ED50 (HIV strain RF) is on record?
**A.** 2.2 mg/L

**Q.** What about the TD50 (MT4 cells) of the same substance?
**A.** > 100 µg/mL

**Q.** What does the source list for “poly{oxy[2,2'-disulfo(1,1'-biphenyl)-4,4'-diyl]oxy-carbonyl-1,4-phenylenecarbonyl}- [Example 6]”?
**A.** MEAN SYNCYTIA 3 days p.i. (HIV (Strain GB8); 25 μg/ml): 25; p24 3 days p.i. (HIV (Strain GB8); 25 μg/ml): 6800 pg/mL; MEAN SYNCYTIA 3 days p.i. (HIV (Strain GB8); 50 μg/ml): 12; p24 3 days p.i. (HIV (Strain GB8); 50 μg/ml): neg; MEAN SYNCYTIA 3 days p.i. (HIV (Strain GB8); 100 μg/ml): 0; p24 3 days p.i. (HIV (Strain GB8); 100 μg/ml): neg; MEAN SYNCYTIA 3 days p.i. (HIV (Strain GB8); 200 μg/ml): 0; p24 Day 2 (HIV (Strain RF); 12 μg/ml): neg; p24 % of VIRUS CONTROL (HIV (Strain RF); 12 μg/ml): 0%; p24 Day 2 (HIV (Strain RF); 25 μg/ml): neg; p24 % of VIRUS CONTROL (HIV (Strain RF); 25 μg/ml): 0%; SYNCYTIA Day 2 (HIV (Strain RF); 50 μg/ml): 0; p24 Day 2 (HIV (Strain RF); 50 μg/ml): neg; p24 % of VIRUS CONTROL (HIV (Strain RF); 50 μg/ml): 0%; SYNCYTIA Day 2 (HIV (Strain RF); 100 μg/ml): 0; p24 Day 2 (HIV (Strain RF); 100 μg/ml): neg; p24 % of VIRUS CONTROL (HIV (Strain RF); 100 μg/ml): 0%

**Q.** “poly{oxy[2,2'-disulfo(1,1'-biphenyl)-4,4'-diyl]oxy-carbonyl}, alpha-[(4-methylphenoxy)carbonyl]-omega-(4-methylphenoxy)- [Example 5]” was tested. Which “MEAN SYNCYTIA 3 days p.i.” value (HIV (Strain GB8); 25 μg/ml) did it give?
**A.** > 200

**Q.** And the “p24 3 days p.i.” value (HIV (Strain GB8); 25 μg/ml)?
**A.** 67 pg/mL

**Q.** What about the “MEAN SYNCYTIA 3 days p.i.” value (HIV (Strain GB8); 50 μg/ml) of the same substance?
**A.** 68

**Q.** What about the “p24 3 days p.i.” value (HIV (Strain GB8); 50 μg/ml) of the same substance?
**A.** neg

**Q.** What about the “MEAN SYNCYTIA 3 days p.i.” value (HIV (Strain GB8); 100 μg/ml) of the same substance?
**A.** 22

**Q.** And the “p24 3 days p.i.” value (HIV (Strain GB8); 100 μg/ml)?
**A.** neg

**Q.** What about the “MEAN SYNCYTIA 3 days p.i.” value (HIV (Strain GB8); 200 μg/ml) of the same substance?
**A.** 14

**Q.** What about the “p24 3 days p.i.” value (HIV (Strain GB8); 200 μg/ml) of the same substance?
**A.** neg

**Q.** And the “p24 Day 2” value (HIV (Strain RF); 12 μg/ml)?
**A.** 3250 pg/mL

**Q.** What about the “p24 % of VIRUS CONTROL” value (HIV (Strain RF); 12 μg/ml) of the same substance?
**A.** 100%

**Q.** What about the “p24 Day 2” value (HIV (Strain RF); 25 μg/ml) of the same substance?
**A.** 2320 pg/mL

**Q.** What about the “p24 % of VIRUS CONTROL” value (HIV (Strain RF); 25 μg/ml) of the same substance?
**A.** 73%

**Q.** What about the “p24 Day 2” value (HIV (Strain RF); 50 μg/ml) of the same substance?
**A.** 2780 pg/mL

**Q.** And the “p24 % of VIRUS CONTROL” value (HIV (Strain RF); 50 μg/ml)?
**A.** 87%

**Q.** And the “p24 Day 2” value (HIV (Strain RF); 100 μg/ml)?
**A.** 1060 pg/mL

**Q.** What about the “p24 % of VIRUS CONTROL” value (HIV (Strain RF); 100 μg/ml) of the same substance?
**A.** 33%
